Columns and labels:
Coagulation factor X [1] = target: T1, Coagulation factor X (Homo sapiens, UniProt P00742); assay: Inhibitory concentration against human Coagulation factor X
Coagulation factor X [2] = target: T1, Coagulation factor X; assay: In vitro anticoagulant potency measured in human plasma by thrombin generation (TG) assay expressed as 2 x TG; assay type: functional, cell-free
[3] = Volume of distribution in rat; assay type: ADME, organism-based; details: in vivo
[4] = Clearance rate in rat; assay type: ADME, organism-based; details: in vivo
[5] = Bioavailability in rat; assay type: ADME, organism-based; details: in vivo
[6] = Half-life determined in rat; assay type: ADME, organism-based; details: in vivo
[7] = target: T2, Vitamin K-dependent protein C (Homo sapiens, UniProt P04070); assay: Inhibitory concentration of compound was determined against activated protein C (aPC)
Coagulation factor X [8] = target: T1, Coagulation factor X; assay: Binding affinity against Coagulation factor X
Kallikrein-1 = Kallikrein-1 (Homo sapiens, UniProt P06870); assay: Inhibitory concentration of compound was determined against kallikrein
Plasminogen = assay: Inhibitory concentration of compound was determined against Plasmin
Prothrombin = Prothrombin (Homo sapiens, UniProt P00734); assay: Inhibitory concentration of compound was determined against thrombin
[9] = target: Tissue-type plasminogen activator (Homo sapiens, UniProt P00750); assay: Inhibitory concentration against tissue type plasminogen activator
Serine protease 1 = Serine protease 1 (Homo sapiens, UniProt P07477); assay: Inhibitory concentration of compound was determined against trypsin
[10] = target: T2, Vitamin K-dependent protein C; assay: Inhibitory concentration of compound was determined against activated protein C

Serine protease 1, sequence (P07477 whole entry): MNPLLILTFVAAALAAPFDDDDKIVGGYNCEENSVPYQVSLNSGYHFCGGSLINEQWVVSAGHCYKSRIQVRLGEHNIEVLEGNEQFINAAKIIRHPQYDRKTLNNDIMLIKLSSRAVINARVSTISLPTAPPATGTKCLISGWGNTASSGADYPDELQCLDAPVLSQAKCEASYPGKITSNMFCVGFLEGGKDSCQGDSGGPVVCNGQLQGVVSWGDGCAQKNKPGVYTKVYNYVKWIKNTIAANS
Tissue-type plasminogen activator, sequence (P00750 whole entry): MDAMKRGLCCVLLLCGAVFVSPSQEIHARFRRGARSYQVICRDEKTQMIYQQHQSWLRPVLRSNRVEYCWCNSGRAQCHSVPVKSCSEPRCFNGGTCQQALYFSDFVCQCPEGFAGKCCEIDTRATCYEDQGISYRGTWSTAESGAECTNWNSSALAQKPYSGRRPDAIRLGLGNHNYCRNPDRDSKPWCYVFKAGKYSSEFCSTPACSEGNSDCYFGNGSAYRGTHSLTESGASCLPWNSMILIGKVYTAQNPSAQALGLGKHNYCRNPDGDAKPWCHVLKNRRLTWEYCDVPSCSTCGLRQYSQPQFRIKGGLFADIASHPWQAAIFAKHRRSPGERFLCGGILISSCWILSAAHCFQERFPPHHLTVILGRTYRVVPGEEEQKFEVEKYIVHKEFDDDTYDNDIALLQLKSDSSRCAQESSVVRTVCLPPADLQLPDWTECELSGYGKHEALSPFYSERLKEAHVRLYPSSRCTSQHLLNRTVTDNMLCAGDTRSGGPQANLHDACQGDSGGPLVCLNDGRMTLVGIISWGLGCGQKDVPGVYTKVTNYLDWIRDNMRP
T1 sequence (P00742 41-179 limits assumed): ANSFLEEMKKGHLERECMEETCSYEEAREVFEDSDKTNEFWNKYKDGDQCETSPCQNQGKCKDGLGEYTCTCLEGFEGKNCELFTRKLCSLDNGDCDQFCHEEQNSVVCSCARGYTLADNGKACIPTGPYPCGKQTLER
T1 sequence (P00742 235-488 limits assumed): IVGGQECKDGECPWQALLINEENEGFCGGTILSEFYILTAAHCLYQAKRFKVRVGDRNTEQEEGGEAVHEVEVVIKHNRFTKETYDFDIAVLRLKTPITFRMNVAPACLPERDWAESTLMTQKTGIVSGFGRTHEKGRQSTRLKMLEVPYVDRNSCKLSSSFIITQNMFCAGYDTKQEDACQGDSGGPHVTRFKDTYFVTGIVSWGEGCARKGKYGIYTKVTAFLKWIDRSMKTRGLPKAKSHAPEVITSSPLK
Kallikrein-1, sequence (P06870 whole entry): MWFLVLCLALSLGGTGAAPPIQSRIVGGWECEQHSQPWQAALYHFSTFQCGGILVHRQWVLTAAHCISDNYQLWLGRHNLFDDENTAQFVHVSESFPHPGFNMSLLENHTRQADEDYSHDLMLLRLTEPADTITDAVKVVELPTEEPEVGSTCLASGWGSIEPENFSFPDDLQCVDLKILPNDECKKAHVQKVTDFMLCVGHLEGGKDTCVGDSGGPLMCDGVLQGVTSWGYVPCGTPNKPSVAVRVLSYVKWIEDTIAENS
Plasminogen, sequence (Q01177 97-581 limits assumed): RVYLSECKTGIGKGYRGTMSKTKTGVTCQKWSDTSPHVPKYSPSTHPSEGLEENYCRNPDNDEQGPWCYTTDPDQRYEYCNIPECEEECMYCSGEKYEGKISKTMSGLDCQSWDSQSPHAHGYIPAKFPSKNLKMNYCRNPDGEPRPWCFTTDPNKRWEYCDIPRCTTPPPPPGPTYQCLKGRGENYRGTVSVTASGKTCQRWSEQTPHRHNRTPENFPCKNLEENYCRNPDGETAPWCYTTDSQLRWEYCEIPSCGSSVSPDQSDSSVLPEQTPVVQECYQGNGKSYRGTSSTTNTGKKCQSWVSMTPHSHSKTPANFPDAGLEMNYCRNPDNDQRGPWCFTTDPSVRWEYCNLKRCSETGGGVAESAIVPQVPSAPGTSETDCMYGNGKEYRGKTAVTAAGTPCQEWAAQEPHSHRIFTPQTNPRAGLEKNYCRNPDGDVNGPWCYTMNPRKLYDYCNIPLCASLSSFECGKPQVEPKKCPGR
Plasminogen, sequence (Q01177 582-812 limits assumed): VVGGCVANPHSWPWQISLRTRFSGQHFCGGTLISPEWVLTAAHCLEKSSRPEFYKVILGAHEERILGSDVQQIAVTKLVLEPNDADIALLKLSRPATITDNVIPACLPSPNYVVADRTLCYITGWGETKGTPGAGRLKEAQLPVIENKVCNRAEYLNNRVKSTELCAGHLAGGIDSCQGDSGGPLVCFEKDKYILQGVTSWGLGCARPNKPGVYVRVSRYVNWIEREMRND
T2 sequence (P04070 43-197 limits assumed): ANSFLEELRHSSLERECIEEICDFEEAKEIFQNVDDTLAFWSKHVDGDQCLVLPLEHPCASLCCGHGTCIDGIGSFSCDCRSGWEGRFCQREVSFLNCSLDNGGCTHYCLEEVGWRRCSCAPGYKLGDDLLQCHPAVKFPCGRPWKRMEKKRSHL
T2 sequence (P04070 212-461 limits assumed): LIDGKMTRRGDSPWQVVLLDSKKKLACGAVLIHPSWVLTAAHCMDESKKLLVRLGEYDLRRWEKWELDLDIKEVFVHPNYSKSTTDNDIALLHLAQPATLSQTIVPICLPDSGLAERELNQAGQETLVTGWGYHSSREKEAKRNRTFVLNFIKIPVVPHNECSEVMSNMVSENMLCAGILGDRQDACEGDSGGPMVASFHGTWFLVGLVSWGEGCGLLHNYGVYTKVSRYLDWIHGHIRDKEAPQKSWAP

| Structure (SMILES) | IC50 (Coagulation factor X [1]) [nM] | Activity (Coagulation factor X [2]) [µM] | Ki (Coagulation factor X [8]) [nM] | also measured |
| --- | --- | --- | --- | --- |
| Cc1cc(C(=O)Nc2ccc(-c3ccccc3CN)cc2)n(-c2ccc3cc(Cl)ccc3c2)n1 | 39 |  |  |  |
| Cc1cc(C(=O)Nc2ccc(-c3ccccn3)cc2F)n(-c2ccc3cc(Cl)ccc3c2)n1 | 94 |  |  |  |
| Cc1cc(C(=O)Nc2ccc(-c3ccccc3S(N)(=O)=O)cc2)n(-c2ccc3cc(Cl)ccc3c2)n1 |  | > 5 |  |  |
| Cc1cc(C(=O)Nc2ccc(N3CCCCC3=O)cc2F)n(-c2cc3ccccc3cc2S(C)(=O)=O)n1 | 27 |  |  |  |
| Cc1cc(C(=O)Nc2ccc(-c3ccccc3CN(C)C)cc2F)n(-c2cc3ccccc3cc2S(C)(=O)=O)n1 | 7 | 0.64 | 2.4 | Vd [3]: 27.3 L/kg; clearance [4]: 114 mL/min/kg; bioavailability [5]: 18%; half-life [6]: 168 min; IC50 [7]: > 10 µM; IC50 (Kallikrein-1): > 10 µM; IC50 (Plasminogen): > 10 µM; IC50 (Prothrombin): > 10 µM; IC50 [9]: > 10 µM; IC50 (Serine protease 1): > 10 µM |
| Cc1cc(C(=O)Nc2ccc(N3CCOCC3=O)cc2)n(-c2ccc3cc(Cl)ccc3c2)n1 | 1 | 3 | 0.3 |  |
| Cc1cc(C(=O)Nc2ccc(-c3ccccc3CN)cc2F)n(-c2cc3ccccc3cc2F)n1 | 2 | 2.2 | 2.4 | Vd [3]: 11 L/kg; clearance [4]: 51.8 mL/min/kg; bioavailability [5]: 22.8%; half-life [6]: 150 min; IC50 [7]: > 10 µM; IC50 (Kallikrein-1): > 10 µM; IC50 (Plasminogen): > 10 µM; IC50 (Prothrombin): > 10 µM; IC50 [9]: > 10 µM; IC50 (Serine protease 1): > 10 µM |
| Cc1cc(C(=O)Nc2ccc(N3CCOCC3=O)cc2F)n(-c2ccc3cc(Cl)ccc3c2)n1 | 1 | 5 | 0.5 |  |
| Cc1cc(C(=O)Nc2ccc(-c3cccc(C(=N)N(C)C)c3)cc2)n(-c2ccc3cc(Cl)ccc3c2)n1 | 380 |  |  |  |
| Cc1cc(C(=O)Nc2ccc(-c3ccccc3S(N)(=O)=O)cc2F)n(-c2cc3ccccc3cc2S(C)(=O)=O)n1 | 5 | 4.5 | 1.1 |  |
| Cc1cc(C(=O)Nc2ccc(-n3ccnc3CN(C)C)cc2F)n(-c2ccc3cc(Cl)ccc3c2)n1 |  | 3 |  |  |
| Cc1cc(C(=O)Nc2ccc(-n3ccnc3C)cc2)n(-c2ccc3cc(Cl)ccc3c2)n1 | 8 | > 5 | 2.9 |  |
| Cc1cc(C(=O)Nc2ccc(C(=O)N3CCCC3)cc2)n(-c2ccc3cc(Cl)ccc3c2)n1 | 6 | > 5 | 1.8 |  |
| Cc1cc(C(=O)Nc2ccc(-c3ccccc3S(C)(=O)=O)cc2F)n(-c2ccc3cc(Cl)ccc3c2)n1 | 6 | > 5 | 1.8 |  |
| Cc1cc(C(=O)Nc2ccc(N3CCCN(C)CC3)cc2)n(-c2ccc3cc(Cl)ccc3c2)n1 | 22 | 5 |  |  |
| Cc1cc(C(=O)Nc2ccc(-n3nccn3)cc2)n(-c2ccc3cc(Cl)ccc3c2)n1 | 2100 |  |  |  |
| Cc1cc(C(=O)Nc2ccc(-c3ccccc3S(N)(=O)=O)cc2F)n(-c2ccc3cc(Cl)ccc3c2)n1 | 3 | > 5 | 3.4 |  |
| Cc1cc(C(=O)Nc2ccc(N3CCOCC3=O)cc2F)n(-c2cc3ccccc3cc2F)n1 | 2 | > 5 | 0.5 |  |
| Cc1cc(C(=O)Nc2ccc(-n3ccnc3C)cc2F)n(-c2ccc3cc(Cl)ccc3c2)n1 | 15 |  |  |  |
| Cc1cc(C(=O)Nc2ccc(C(=O)N(C)C)cc2)n(-c2ccc3cc(Cl)ccc3c2)n1 | 13 | > 5 |  |  |
| Cc1cc(C(=O)Nc2ccc(-c3ccncc3)cc2F)n(-c2ccc3cc(Cl)ccc3c2)n1 | 40 |  |  |  |
| Cc1cc(C(=O)Nc2ccc(-n3ccnc3CN(C)C)cc2)n(-c2ccc3cc(Cl)ccc3c2)n1 | 8 | > 5 | 2.8 |  |
| Cc1cc(C(=O)Nc2ccc(-n3ccnc3CN(C)C)cc2F)n(-c2cc3ccccc3cc2S(C)(=O)=O)n1 | 8 | 1.7 | 3.2 |  |
| Cc1cc(C(=O)Nc2ccc(N3CCNCCC3=O)cc2F)n(-c2cc3ccccc3cc2S(C)(=O)=O)n1 | 680 |  |  |  |
| Cc1cc(C(=O)Nc2ccc(-c3cccc(CN)c3)cc2)n(-c2ccc3cc(Cl)ccc3c2)n1 | 70 |  |  |  |
| Cc1cc(C(=O)Nc2ccc(-c3cccnc3)cc2F)n(-c2ccc3cc(Cl)ccc3c2)n1 | 92 |  |  |  |
| Cc1cc(C(=O)Nc2ccc(N3CCCCC3=O)cc2)n(-c2ccc3cc(Cl)ccc3c2)n1 | 3 | > 5 | 1.1 |  |
| Cc1cc(C(=O)Nc2ccc(N3CCNCCC3=O)cc2)n(-c2ccc3cc(Cl)ccc3c2)n1 | 130 |  |  |  |

| Structure (SMILES) | IC50 (Coagulation factor X [1]) [nM] | Activity (Coagulation factor X [2]) [µM] | Ki (Coagulation factor X [8]) [nM] | also measured |
| --- | --- | --- | --- | --- |
| Cc1cc(C(=O)Nc2ccc(-c3ccccc3S(C)(=O)=O)cc2F)n(-c2cc3ccccc3cc2S(C)(=O)=O)n1 | 9 | 1 | 1.7 | Vd [3]: 2.6 L/kg; clearance [4]: 41.2 mL/min/kg; bioavailability [5]: 18%; half-life [6]: 42 min; IC50 [7]: > 10 µM; IC50 (Kallikrein-1): > 10 µM; IC50 (Plasminogen): > 10 µM; IC50 (Prothrombin): > 10 µM; IC50 [9]: > 10 µM; IC50 (Serine protease 1): > 10 µM |
| Cc1cc(C(=O)Nc2ccc(-n3cccn3)cc2)n(-c2ccc3cc(Cl)ccc3c2)n1 | 215 |  |  |  |
| Cc1cc(C(=O)Nc2ccc(N3CCOCC3)cc2)n(-c2ccc3cc(Cl)ccc3c2)n1 | 88 |  |  |  |
| Cc1cc(C(=O)Nc2ccc(N3CCOCC3=O)cc2F)n(-c2cc3ccccc3cc2S(C)(=O)=O)n1 | 2 | 0.44 | 0.8 | Vd [3]: 0.8 L/kg; clearance [4]: 16.8 mL/min/kg; bioavailability [5]: 19.3%; half-life [6]: 30 min; IC50 [10]: > 10 µM; IC50 (Kallikrein-1): > 10 µM; IC50 (Plasminogen): > 10 µM; IC50 (Prothrombin): > 10 µM; IC50 [9]: > 10 µM; IC50 (Serine protease 1): > 10 µM |
| Cc1cc(C(=O)Nc2ccc(C(=O)N3CCCCC3)cc2)n(-c2ccc3cc(Cl)ccc3c2)n1 | 66 |  |  |  |
| Cc1cc(C(=O)Nc2ccc(-c3ccccc3S(N)(=O)=O)cn2)n(-c2cc3ccccc3cc2F)n1 | 81 |  |  |  |
| Cc1cc(C(=O)Nc2ncc(-c3ccccc3S(N)(=O)=O)cn2)n(-c2cc3ccccc3cc2F)n1 | 39 |  |  |  |
| Cc1cc(C(=O)Nc2ccc(N3CCNCC3=O)cc2F)n(-c2cc3ccccc3cc2S(C)(=O)=O)n1 | 41 |  |  |  |
| Cc1cc(C(=O)Nc2ccc(-n3ccnc3)cc2)n(-c2ccc3cc(Cl)ccc3c2)n1 | 108 |  |  |  |
| Cc1cc(C(=O)Nc2ccc(-n3ccnc3CN)cc2F)n(-c2cc3ccccc3cc2F)n1 | 13 |  |  |  |
| Cc1cc(C(=O)Nc2ccc(-c3ccccc3S(C)(=O)=O)cc2)n(-c2ccc3cc(Cl)ccc3c2)n1 |  | > 5 | 1.4 |  |
| Cc1cc(C(=O)Nc2ccc(-c3ccccc3C(=N)N(C)C)cc2)n(-c2ccc3cc(Cl)ccc3c2)n1 | 26 |  |  |  |
| Cc1cc(C(=O)Nc2ccc(-c3ccccc3S(N)(=O)=O)cn2)n(-c2cc3ccccc3cc2S(C)(=O)=O)n1 | 46 |  |  |  |
| Cc1cc(C(=O)Nc2ccc(-c3cccc(C(=N)N)c3)cc2)n(-c2ccc3cc(Cl)ccc3c2)n1 | 75 |  |  |  |
| Cc1cc(C(=O)Nc2ncc(-c3ccccc3S(N)(=O)=O)cn2)n(-c2ccc3cc(Cl)ccc3c2)n1 | 7 | 2 | 2.5 |  |
| Cc1cc(C(=O)Nc2ccc(-c3ccccc3CN(C)C)cc2F)n(-c2ccc3cc(Cl)ccc3c2)n1 | 2 | 1.7 | 1.5 | Vd [3]: 22.1 L/kg; clearance [4]: 35.7 mL/min/kg; bioavailability [5]: 35.2%; half-life [6]: 432 min; IC50 [7]: > 10 µM; IC50 (Kallikrein-1): 9.7 µM; IC50 (Plasminogen): > 10 µM; IC50 (Prothrombin): 5.5 µM; IC50 [9]: > 10 µM; IC50 (Serine protease 1): > 10 µM |
| Cc1cc(C(=O)Nc2ccc(N3CCN(C)CC3)cc2)n(-c2ccc3cc(Cl)ccc3c2)n1 | 166 |  |  |  |
| Cc1cc(C(=O)Nc2ccc(-c3ccccc3CN(C)C)cc2)n(-c2ccc3cc(Cl)ccc3c2)n1 | 5 | 2 | 1.8 |  |
| Cc1cc(C(=O)Nc2ccc(N3CCCC3=O)cc2F)n(-c2cc3ccccc3cc2S(C)(=O)=O)n1 | 58 |  |  |  |
| Cc1cc(C(=O)Nc2ccc(N3CCCCC3)cc2)n(-c2ccc3cc(Cl)ccc3c2)n1 | 131 |  |  |  |
| Cc1cc(C(=O)Nc2ccc(N3CCOCCC3=O)cc2F)n(-c2cc3ccccc3cc2S(C)(=O)=O)n1 | 23 |  |  |  |
| Cc1cc(C(=O)Nc2ccc(-c3ccccc3S(C)(=O)=O)cc2F)n(-c2cc3ccccc3cc2F)n1 | 14 |  |  |  |
| Cc1cc(C(=O)Nc2ccc(-c3ccccc3S(N)(=O)=O)cc2F)n(-c2cc3ccccc3cc2F)n1 | 29 |  |  |  |
| Cc1cc(C(=O)Nc2ccc(N3CCCNCC3)cc2)n(-c2ccc3cc(Cl)ccc3c2)n1 | 36 |  |  |  |
| Cc1cc(C(=O)Nc2ccc(-c3ccccc3S(N)(=O)=O)cn2)n(-c2ccc3cc(Cl)ccc3c2)n1 | 5 | 2 | 1.9 |  |
| Cc1cc(C(=O)Nc2ccc(N3CCCCCC3=O)cc2F)n(-c2cc3ccccc3cc2S(C)(=O)=O)n1 | 47 |  |  |  |
| Cc1cc(C(=O)Nc2ccc(-n3ccnn3)cc2)n(-c2ccc3cc(Cl)ccc3c2)n1 | 112 |  |  |  |
